Assay results reported in the NIST ThermoML archive (doi:10.1016/j.jct.2018.02.022).

Assay: xn = mol fraction of the nth substance listed
Conditions: 92.3 kPa, Liquid; for viscosity: Concentric cylinders viscometry; for speed of sound: Frequency=3 MHz, Single path-length method; for mass density: Vibrating tube method

OCCO [1,2-ethanediol] + O
Conditions	mass density, 293.15 K [kg/m3]	mass density, 298.15 K [kg/m3]	speed of sound, 293.15 K [m/s]	speed of sound, 298.15 K [m/s]	viscosity, 293.15 K [mPa·s]	viscosity, 298.15 K [mPa·s]
x1 = 0.0101	1002.83	1001.54	1498.9	1511.9	–	–
x1 = 0.0201	1006.96	1005.57	1514.6	1526.3	–	–
x1 = 0.0302	1011.02	1009.56	1529.7	1540.2	–	–
x1 = 0.0407	1015.07	1013.5	1544.6	1553.8	–	–
x1 = 0.0494	1018.4	1016.76	–	–	1.541	1.253
x1 = 0.0506	1018.75	1017.08	1558.1	1566.2	–	–
x1 = 0.0605	1022.31	1020.55	1570.8	1577.9	–	–
x1 = 0.0704	1025.78	1023.96	1583.2	1589.2	–	–
x1 = 0.0801	1029.04	1027.15	1594	1599	–	–
x1 = 0.0905	1032.34	1030.37	1605.6	1609.6	–	–
x1 = 0.0986	1034.8	1032.78	–	–	2.078	1.68
x1 = 0.0997	1035.3	1033.24	1614.8	1618	–	–
x1 = 0.1483	1048.46	1046.12	–	–	2.699	2.167
x1 = 0.1493	1048.74	1046.4	1656.2	1655.5	–	–
x1 = 0.1985	1059.45	1056.96	1684.5	1681	–	–
x1 = 0.2072	1061.51	1058.86	–	–	3.517	2.811
x1 = 0.2466	1068.68	1065.86	–	–	4.104	3.276
x1 = 0.2487	1069.2	1066.32	1702.1	1696.5	–	–
x1 = 0.298	1076.5	1073.51	–	–	4.94	3.936
x1 = 0.2998	1076.8	1073.79	1712.9	1705.8	–	–
x1 = 0.3318	1080.9	1077.77	1716.6	1708.7	–	–
x1 = 0.3399	1081.8	1078.69	–	–	5.663	4.507
x1 = 0.3921	1087.31	1084.09	–	–	6.621	5.261
x1 = 0.3981	1087.84	1084.61	1719.4	1710.4	–	–
x1 = 0.4446	1091.88	–	–	–	7.638	6.062
x1 = 0.4521	1092.39	–	1718.6	1708.8	–	–
x1 = 0.4934	1095.4	1092.05	1716.1	1705.9	–	–
x1 = 0.5007	–	1092.56	–	–	8.782	6.959
x1 = 0.5485	1098.81	1095.42	–	–	9.81	7.764
x1 = 0.552	1099	–	1711.5	1700.9	–	–
x1 = 0.5846	1100.79	1097.38	1708.3	1697.6	–	–
x1 = 0.6004	1101.51	1098.09	–	–	10.95	8.662
x1 = 0.6451	1103.53	1100.1	–	–	11.97	9.461
x1 = 0.6481	1103.65	1100.22	1702.1	1691	–	–
x1 = 0.6773	1104.88	1101.43	1699	1687.8	–	–
x1 = 0.7012	1105.75	1102.3	–	–	13.33	10.55
x1 = 0.7421	1107.16	1103.69	1692.2	1680.8	–	–
x1 = 0.7435	1107.22	1103.76	–	–	14.35	11.32
x1 = 0.7811	1108.41	1104.94	1688	1676.5	–	–
x1 = 0.7907	1108.69	1105.22	–	–	15.51	12.24
x1 = 0.8497	–	1106.83	1681	1669.3	–	–
x1 = 0.8505	–	1106.84	–	–	16.94	13.35
x1 = 0.89	1111.29	1107.8	–	–	17.91	14.12
x1 = 0.9002	1111.55	1108.06	1676	1664.3	–	–
x1 = 0.9059	1111.66	1108.17	1675.5	1663.8	–	–
x1 = 0.912	1111.78	1108.29	1675	1663.3	–	–
x1 = 0.9299	1112.18	1108.69	1673.3	1661.5	–	–
x1 = 0.9413	1112.43	1108.94	1672.2	1660.4	–	–
x1 = 0.9495	1112.62	1109.13	1671.4	1659.6	–	–
x1 = 0.9532	1112.69	1109.19	–	–	19.48	15.35
x1 = 0.9546	1112.73	1109.23	1671	1659.2	–	–
x1 = 0.9681	1112.99	1109.49	1669.9	1658.1	–	–
x1 = 0.9789	1113.19	–	1669	1657.2	–	–
x1 = 0.9893	1113.4	–	1667.9	1656.1	–	–
x1 = 1	1113.72	–	1666.5	1654.7	20.61	16.22
